Assay results from patent publication US7211566B2 (Universite De Sherbrooke, priority 2003, dated 2007).

Key:
[1] = tested on: STZ diabetic mice; test: Hot plate test, type-1 diabetic hyperalgesia; format: in vivo; conditions: 400 μg/kg i.p.
Protocol: (§1) Male CD-1 mice weighting between 25–30 g (Charles River Breeding Laboratory, St-Constant, QC, Canada) were used. The mice were housed four by cage with free access to food and water. They were maintained under conditions of standard lighting, (alternating 12-h light/dark cycle), temperature (22±0.5° C.) and humidity (60±10%) with food and water available at libitum. Animals were used only once in a given experiment. Experiments were conducted between 10:00 and 18:00 h.
(§2) Streptozotocin (Pharmacia & Upjohn Incorporation, Mississauga, ON, Canada) was dissolved in saline at a pH of 4.5 and administered to mice i.p. The BKB1 agonist desArg^9BK and compound c were dissolved in saline and administered to mice i.p.
(§3) Insulin-dependent diabetes mellitus (IDDM) was induced in mice using STZ. Male CD-1 mice were given a single high i.p. dose of STZ (200 mg/kg) (McEvoy et al., 1984, J Clin Invest 74, 715–722). […] Blood glucose levels were determined with an automatic analyzer (Glucometer Elite XL, Bayer Incorporation, Toronto, Ontario, Canada) using glucose oxidase/potassium ferricyanide reagent strips. […]
The hot plate test was adapted from the technique of Eddy and Leimbach (1953, J Pharmacol Exp Ther 107, 385–389). […] When the pain threshold is reached the animal starts to react by licking its hind paw or to jump, and the reaction time is recorded with a built-in timer, with a maximum cut-off time of 30 s to avoid tissue damage. […]
(§4) The effect of the selected drugs on nociception was determined by converting the hot plate, the plantar stimulation, the tail immersion or the tail flick responses from latencies into MPE (Maximum Percent Effect) according to the following equation (Bhargava and Zhao, 1996, Neuropeptides, 30, 219–223): […]
(§5) In all tests, pre-treatment latencies were determined three times with an interval of 24 h starting three days before the injection of STZ or saline and the mean was calculated in order to obtain stable pre-drug response latency. […]

[2] = tested on: STZ diabetic mice; test: Plantar stimulation test, type-1 diabetic hyperalgesia; format: in vivo
Protocol: as §1, with “h. […]” for “h.”
(§6) Insulin-dependent diabetes mellitus (IDDM) was induced in mice using STZ. […] Blood glucose levels were determined with an automatic analyzer (Glucometer Elite XL, Bayer Incorporation, Toronto, Ontario, Canada) using glucose oxidase/potassium ferricyanide reagent strips. […]
In the plantar stimulation test, the method of Hargreaves et al. (Hargreaves et al., 1988, Pain, 32, 77–88) was used to access the hind-paw nociceptive withdrawal thresholds of a free moving mouse to thermal stimuli. […] Each latency value was determined from two applications of the radiant heat stimulus, separated by 1–2 min intervals, and the mean of the two measures is taken. […]
as §5

[3] = tested on: STZ diabetic mice; test: Tail immersion test, type-1 diabetic hyperalgesia; format: in vivo
Protocol: as §1, with “h. […]” for “h.”
as §6
The tail-immersion test was performed according to Coderre and Rollman (Coderre and Rollman, 1983, Life Sci 32, 2139–2146). […] The latency between submersion of the tail and its removal from the water by the animal was recorded, with a maximum cut-off time of 10 seconds to minimize tail skin tissue damage. […]
as §4

[4] = tested on: STZ diabetic mice; test: Tail flick test, type-1 diabetic hyperalgesia; format: in vivo
Protocol: as §1, §2, §3
The tail flick test of D'Amour and Smith (D'Amour and Smith, 1941, J Pharmacol Exp Ther 72, 74–79) modified for mice was used. […] The radiant light is focussed on a blackened spot in the mid region of the animal's tail (2–3 cm from the tip of the tail) and the latency between the application of the stimulation light and the flicking of the animal's tail is recorded. When the animal flicks its tail, its exposes a photocell in the apparatus immediately below the tail and the instrument is automatically stopped and the time is recorded. […]
as §4

[5] = tested on: aminopeptidases; conditions: cited from earlier work
[6] = tested on: carboxypeptidases of the M type (CPM); conditions: cited from earlier work
[7] = tested on: carboxypeptidases of the N type (CPN); conditions: cited from earlier work
[8] = blood; conditions: rat, 37° C., up to 4 hours
[9] = serum; conditions: rat, 37° C., up to 4 hours
[10] = plasma; conditions: rat, 37° C., up to 4 hours
[11] = human plasma as a source of aminopeptidase M (AmM); conditions: up to 60 min
[12] = tested on: angiotensin converting enzyme (ACE); test: Purified ACE from rabbit lungs (Sigma, St. Louis, Mo.) dissolved in PBS (50 mM, pH 7.5, containing 300 mM NaCl and 10 μM ZnCl2); conditions: 37° C., up to 60 min
[13] = molecular target: T1, BKB1 receptor (Homo sapiens, UniProt P46663); conditions: Gobeil et al. 1996; cited from earlier work
T1 sequence (P46663 1-353): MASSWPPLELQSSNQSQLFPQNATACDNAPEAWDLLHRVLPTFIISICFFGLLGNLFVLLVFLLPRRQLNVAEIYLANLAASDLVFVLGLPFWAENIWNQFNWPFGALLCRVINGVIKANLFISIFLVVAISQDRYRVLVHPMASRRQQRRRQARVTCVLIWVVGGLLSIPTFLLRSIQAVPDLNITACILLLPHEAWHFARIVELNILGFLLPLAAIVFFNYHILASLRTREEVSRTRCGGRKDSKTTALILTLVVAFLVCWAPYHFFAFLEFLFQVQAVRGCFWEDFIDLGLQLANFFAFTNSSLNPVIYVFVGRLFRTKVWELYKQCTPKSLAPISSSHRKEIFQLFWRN

desArg^9BK
potentiation of hyperalgesic response ([1]; STZ diabetic mice): 98% | change in nociceptive response ([1]; control mice): did not induce significant changes | MPE ([2]; STZ diabetic mice, 400 μg/kg i.p., 20 min after injection): −21.03±0.75% | change in nociceptive response ([2]; healthy mice): did not induce significant changes | MPE ([3]; STZ diabetic mice, i.p., 20 min after administration): −19.23±0.60% | change in tail immersion latencies ([3]; control mice): did not show significant changes | potentiating effect on hyperalgesic activity ([4]; STZ diabetic mice, maximal after 10 min): 48% | change in tail flick test ([4]; control mice, 400 μg/kg i.p.): did not induce significant changes

Lys Arg Pro Pro Gly Phe Ser Pro Phe Arg
fragment found [5]: BK | cleaved bond [6]: Phe8-Arg9 | cleaved bond [7]: Phe8-Arg9

Ac-Orn[Oic^2,(α-Me)Phe^5,D-βNal^7,Ile^8]desArg^9BK
not cleaved [8]: >90% parent remaining after 4 hours | not cleaved [9]: >90% parent remaining after 4 hours | not cleaved [10]: >90% parent remaining after 4 hours | not cleaved [11]: Peptide metabolism 0 % (60 min) | not cleaved [12]: Peptide metabolism 0 % (60 min)

Lys-desArg^9BK (KRPPGFSPF; Lys - des-Arg9 Bradykinin) [BKB1 receptor agonist]
potency relative to desArg^9BK [13]: 100 fold
